According to article PMC7531004, “Discovery of gramicidin A analogues with altered activities by multidimensional screening of a one-bead-one-compound library” (Nature Communications, 2020):
Where a SMILES comes first, the peptide text is derived from it. [ ]: non-standard residue; d: D form. The star is where a group is joined. NHCH2CH2OH = OCCN*; For = O=C*

Assays:
[1] = test system: P388 mouse leukemia cells; details: 92 h
In short: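 First, library peptide stocks are diluted 250-fold in RPMI1640 with 10% heat-inactivated FBS. Next, they are mixed with P388 cells to give 1 × 10^4 cells/mL and incubated 92 h at 37 °C, 5% CO2. Finally, viability (%) is scored by WST-1 absorbance at 415 nm.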

[2] = test system: Streptococcus pyogenes SSI-9; test: Antibacterial activity assay of bead-derived peptides (three concentrations); format: cell-based; parameters: key: +++: inhibition by the 640-fold diluted peptide solution; ++: inhibition by the 160-fold diluted solution; +: inhibition by the 40-fold diluted solution; -: no inhibition; details: S. pyogenes, bead-derived peptide solution, three concentrations
In short: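 Three stock dilutions per peptide (none, 4-fold, 16-fold in DMSO) are screened in 96-well format. The medium is blood-supplemented cation-adjusted MHB, inoculated with 2 × 10^5 CFU S. pyogenes SSI-9. Growth is read as cell precipitation at 18 h, 37 °C.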

[3] = H+/Na+ transport assay of bead-derived peptides (one-point); format: biochemical; parameters: key: relative activity; mean of two control wells = 1.00; details: bead-derived peptide solution, EYPC/EYPG LUVs;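 also: relative to parent gramicidin A activity set to 1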
In short: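 Miniaturized 96-well format. LUVs with entrapped pyranine (1.0 mM) were exposed to peptide for 30 min at RT. Intensities were expressed relative to full lysis by Triton X-100 and no treatment, with control-well mean = 1.00.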

Structure (SMILES) | cell viability/% [1] [%] | antibacterial activity [2] | H+/Na+ transport activity normalized against the value of 1 (1.00) [3]
CNC(=O)C[C@@H](NC(=O)[C@H](C)NC(=O)[C@@H](CC(C)C)NC(=O)[C@H](C)NC(=O)CNC(=O)[C@@H](NC=O)C(C)C)C(=O)N[C@H](C(=O)N[C@@H](C(=O)N[C@@H](Cc1c[nH]c2ccccc12)C(=O)N[C@H](CC(C)C)C(=O)N[C@@H](Cc1c[nH]c2ccccc12)C(=O)N[C@@H](C(=O)N[C@@H](Cc1c[nH]c2ccccc12)C(=O)N[C@H](CC(C)C)C(=O)N[C@@H](Cc1c[nH]c2ccccc12)C(=O)NCCO)C(C)C)C(C)C)C(C)C [compound 13123] (For-VGA[dL]A[dD](NHMe)V[dV]W[dL]W[dV]W[dL]W-NHCH2CH2OH) | 100.0 | - | 1.24
CC(C)C[C@@H](NC(=O)[C@H](C)NC(=O)[C@H](NC(=O)[C@H](C)NC(=O)CNC(=O)[C@@H](NC=O)C(C)C)C(C)C)C(=O)N[C@H](C(=O)N[C@H](CC(C)C)C(=O)N[C@@H](Cc1c[nH]c2ccccc12)C(=O)N[C@H](CC(C)C)C(=O)N[C@@H](Cc1c[nH]c2ccccc12)C(=O)N[C@H](CC(C)C)C(=O)N[C@@H](Cc1c[nH]c2ccccc12)C(=O)N[C@@H](C(=O)N[C@@H](Cc1c[nH]c2ccccc12)C(=O)NCCO)[C@H](C)O)C(C)C [compound 3365] (For-VGA[dV]A[dL]V[dL]W[dL]W[dL]W[dT]W-NHCH2CH2OH) | 100.0 | + | 1.03
CC(C)C[C@@H](NC(=O)[C@H](C)NC(=O)CNC(=O)[C@@H](NC=O)C(C)C)C(=O)N[C@@H](C)C(=O)N[C@@H](C(=O)N[C@H](C(=O)N[C@@H](C(=O)N[C@@H](Cc1c[nH]c2ccccc12)C(=O)N[C@@H](C(=O)N[C@@H](Cc1c[nH]c2ccccc12)C(=O)N[C@H](CC(C)C)C(=O)N[C@@H](Cc1c[nH]c2ccccc12)C(=O)N[C@@H](C(=O)N[C@@H](Cc1c[nH]c2ccccc12)C(=O)NCCO)C(C)C)C(C)C)C(C)C)C(C)C)C(C)C [compound 6861] (For-VGA[dL]A[dV]V[dV]W[dV]W[dL]W[dV]W-NHCH2CH2OH) | 100.0 | + | 1.18
CNC(=O)C[C@@H](NC(=O)[C@H](Cc1c[nH]c2ccccc12)NC(=O)[C@H](NC(=O)[C@H](Cc1c[nH]c2ccccc12)NC(=O)[C@H](NC(=O)[C@H](Cc1c[nH]c2ccccc12)NC(=O)[C@@H](CC(C)C)NC(=O)[C@@H](NC(=O)[C@H](NC(=O)[C@H](C)NC(=O)[C@@H](CC(C)C)NC(=O)[C@H](C)NC(=O)CNC(=O)[C@@H](NC=O)C(C)C)C(C)C)C(C)C)C(C)C)C(C)C)C(=O)N[C@@H](Cc1c[nH]c2ccccc12)C(=O)NCCO [compound 8567] (For-VGA[dL]A[dV]V[dL]W[dV]W[dV]W[dD](NHMe)W-NHCH2CH2OH) | 60.9 | - | 1.22
CC(C)C[C@@H](NC(=O)[C@H](C)NC(=O)[C@H](NC(=O)[C@H](C)NC(=O)CNC(=O)[C@@H](NC=O)C(C)C)[C@H](C)O)C(=O)N[C@H](C(=O)N[C@H](CC(C)C)C(=O)N[C@@H](Cc1c[nH]c2ccccc12)C(=O)N[C@@H](C(=O)N[C@@H](Cc1c[nH]c2ccccc12)C(=O)N[C@H](CC(C)C)C(=O)N[C@@H](Cc1c[nH]c2ccccc12)C(=O)N[C@H](CC(C)C)C(=O)N[C@@H](Cc1c[nH]c2ccccc12)C(=O)NCCO)[C@H](C)O)C(C)C [compound 5215] (For-VGA[dT]A[dL]V[dL]W[dT]W[dL]W[dL]W-NHCH2CH2OH) | 100.0 | - | 1.33
CNC(=O)C[C@@H](NC(=O)[C@@H](NC(=O)[C@@H](CC(C)C)NC(=O)[C@H](C)NC(=O)[C@@H](CC(C)C)NC(=O)[C@H](C)NC(=O)CNC(=O)[C@@H](NC=O)C(C)C)C(C)C)C(=O)N[C@@H](Cc1c[nH]c2ccccc12)C(=O)N[C@H](CC(C)C)C(=O)N[C@@H](Cc1c[nH]c2ccccc12)C(=O)N[C@H](CC(C)C)C(=O)N[C@@H](Cc1c[nH]c2ccccc12)C(=O)N[C@@H](C(=O)N[C@@H](Cc1c[nH]c2ccccc12)C(=O)NCCO)[C@H](C)O [compound 638] (For-VGA[dL]A[dL]V[dD](NHMe)W[dL]W[dL]W[dT]W-NHCH2CH2OH) | 100.0 | - | 1.01
CC(C)C[C@@H](NC(=O)[C@H](C)NC(=O)CNC(=O)[C@@H](NC=O)C(C)C)C(=O)N[C@@H](C)C(=O)N[C@H](CC(C)C)C(=O)N[C@H](C(=O)N[C@H](CC(C)C)C(=O)N[C@@H](Cc1c[nH]c2ccccc12)C(=O)N[C@@H](C(=O)N[C@@H](Cc1c[nH]c2ccccc12)C(=O)N[C@@H](C(=O)N[C@@H](Cc1c[nH]c2ccccc12)C(=O)N[C@@H](C(=O)N[C@@H](Cc1c[nH]c2ccccc12)C(=O)NCCO)C(C)C)C(C)C)[C@H](C)O)C(C)C [compound 5679] (For-VGA[dL]A[dL]V[dL]W[dT]W[dV]W[dV]W-NHCH2CH2OH) | 90.5 | - | 1.06
CC(C)C[C@@H](NC(=O)[C@H](Cc1c[nH]c2ccccc12)NC(=O)[C@H](NC(=O)[C@H](Cc1c[nH]c2ccccc12)NC(=O)[C@@H](CC(C)C)NC(=O)[C@H](Cc1c[nH]c2ccccc12)NC(=O)[C@H](NC(=O)[C@@H](NC(=O)[C@H](NC(=O)[C@H](C)NC(=O)[C@H](NC(=O)[C@H](C)NC(=O)CNC(=O)[C@@H](NC=O)C(C)C)C(C)C)C(C)C)C(C)C)C(C)C)C(C)C)C(=O)N[C@@H](Cc1c[nH]c2ccccc12)C(=O)NCCO [compound 1844] (For-VGA[dV]A[dV]V[dV]W[dL]W[dV]W[dL]W-NHCH2CH2OH) | 47.9 | ++ | 1.18
CC(C)C[C@@H](NC(=O)[C@H](C)NC(=O)CNC(=O)[C@@H](NC=O)C(C)C)C(=O)N[C@@H](C)C(=O)N[C@H](CC(C)C)C(=O)N[C@H](C(=O)N[C@H](CC(C)C)C(=O)N[C@@H](Cc1c[nH]c2ccccc12)C(=O)N[C@@H](C(=O)N[C@@H](Cc1c[nH]c2ccccc12)C(=O)N[C@@H](C(=O)N[C@@H](Cc1c[nH]c2ccccc12)C(=O)N[C@@H](C(=O)N[C@@H](Cc1c[nH]c2ccccc12)C(=O)NCCO)C(C)C)C(C)C)C(C)C)C(C)C [compound 11323] (For-VGA[dL]A[dL]V[dL]W[dV]W[dV]W[dV]W-NHCH2CH2OH) | 5.2 | - | 1.02
CC(C)C[C@@H](NC(=O)[C@H](Cc1c[nH]c2ccccc12)NC(=O)[C@H](NC(=O)[C@H](Cc1c[nH]c2ccccc12)NC(=O)[C@H](NC(=O)[C@@H](NC(=O)[C@H](NC(=O)[C@H](C)NC(=O)[C@H](NC(=O)[C@H](C)NC(=O)CNC(=O)[C@@H](NC=O)C(C)C)[C@H](C)O)C(C)C)C(C)C)C(C)C)C(C)C)C(=O)N[C@@H](Cc1c[nH]c2ccccc12)C(=O)N[C@@H](C(=O)N[C@@H](Cc1c[nH]c2ccccc12)C(=O)NCCO)C(C)C [compound 5933] (For-VGA[dT]A[dV]V[dV]W[dV]W[dL]W[dV]W-NHCH2CH2OH) | 73.0 | - | 1.05
CC(C)C[C@@H](NC(=O)[C@H](C)NC(=O)CNC(=O)[C@@H](NC=O)C(C)C)C(=O)N[C@@H](C)C(=O)N[C@@H](C(=O)N[C@H](C(=O)N[C@@H](C(=O)N[C@@H](Cc1c[nH]c2ccccc12)C(=O)N[C@H](CC(C)C)C(=O)N[C@@H](Cc1c[nH]c2ccccc12)C(=O)N[C@@H](C(=O)N[C@@H](Cc1c[nH]c2ccccc12)C(=O)N[C@H](CC(C)C)C(=O)N[C@@H](Cc1c[nH]c2ccccc12)C(=O)NCCO)C(C)C)[C@H](C)O)C(C)C)C(C)C [compound 12185] (For-VGA[dL]A[dV]V[dT]W[dL]W[dV]W[dL]W-NHCH2CH2OH) | 98.1 | + | 1.02
CC(C)C[C@@H](NC(=O)[C@H](C)NC(=O)CNC(=O)[C@@H](NC=O)C(C)C)C(=O)N[C@@H](C)C(=O)N[C@@H](C(=O)N[C@H](C(=O)N[C@H](CC(C)C)C(=O)N[C@@H](Cc1c[nH]c2ccccc12)C(=O)N[C@H](CC(C)C)C(=O)N[C@@H](Cc1c[nH]c2ccccc12)C(=O)N[C@@H](C(=O)N[C@@H](Cc1c[nH]c2ccccc12)C(=O)N[C@H](CC(C)C)C(=O)N[C@@H](Cc1c[nH]c2ccccc12)C(=O)NCCO)C(C)C)C(C)C)C(C)C [compound 3847] (For-VGA[dL]A[dV]V[dL]W[dL]W[dV]W[dL]W-NHCH2CH2OH) | 0.0 | + | 1.22
CNC(=O)C[C@@H](NC(=O)[C@@H](NC(=O)[C@@H](CC(C)C)NC(=O)[C@H](C)NC(=O)[C@@H](CC(C)C)NC(=O)[C@H](C)NC(=O)CNC(=O)[C@@H](NC=O)C(C)C)C(C)C)C(=O)N[C@@H](Cc1c[nH]c2ccccc12)C(=O)N[C@@H](C(=O)N[C@@H](Cc1c[nH]c2ccccc12)C(=O)N[C@H](CC(C)C)C(=O)N[C@@H](Cc1c[nH]c2ccccc12)C(=O)N[C@H](CC(C)C)C(=O)N[C@@H](Cc1c[nH]c2ccccc12)C(=O)NCCO)C(C)C [compound 6703] (For-VGA[dL]A[dL]V[dD](NHMe)W[dV]W[dL]W[dL]W-NHCH2CH2OH) | 100.0 | - | 1.17
